For this test, the target named is T1, TbAUK1 (recombinant GST-tagged TbAUK1) (Trypanosoma brucei, UniProt Q384J7).
T1 construct: gene AUK1; no tag cleavage mentioned; tested without TbCPC1/TbCPC2
T1 sequence (Q384J7 1-309): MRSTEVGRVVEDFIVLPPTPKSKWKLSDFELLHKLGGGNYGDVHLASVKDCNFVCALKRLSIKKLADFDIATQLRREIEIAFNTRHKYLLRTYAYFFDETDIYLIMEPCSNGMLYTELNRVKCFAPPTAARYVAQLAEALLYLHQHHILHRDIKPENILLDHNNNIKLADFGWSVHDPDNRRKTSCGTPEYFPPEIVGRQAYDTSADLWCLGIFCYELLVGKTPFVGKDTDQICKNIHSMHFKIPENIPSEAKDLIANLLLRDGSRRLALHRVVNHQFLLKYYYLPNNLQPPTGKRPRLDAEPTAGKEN
The test can be described thus: in vitro kinase assay, […] phosphorylation of GST-histone H3, SDS-PAGE and Phosphor-Imager. The test is classed as biochemical.

Consider `Cc1cc(Nc2cc(N3CCN(C)CC3)nc(Sc3ccc(NC(=O)C4CC4)cc3)n2)[nH]n1` [VX-680], for which the IC50 came out at 0.19 µM.

These data come from article PMC2734176, “The Aurora Kinase in Trypanosoma brucei Plays Distinctive Roles in Metaphase-Anaphase Transition and Cytokinetic Initiation” (PLoS Pathogens, 2009).
